In US20220184220A1, “XYLOGLUCAN-CONTAINING PRODRUGS AND METHODS OF MANUFACTURE AND USE THEREOF” (priority 2019, published 2022):
Entries after “also recorded” stand apart in the source; their conditions may differ.

Columns and labels:
[1] = tested on: acute self-limiting colitis in mice; assay: Histological scoring of inflammation, C. rodentium colitis in germ-free mice colonized with B. ovatus (Example 3); type: in vivo; details: n=2; for Crypt Height / Epithelia Hyperplasia / Epithelial Injury / Fibrosis / Globlet cell / Inflamm / Mitotic Act.: gavage 3 days, prednisolone forms 1 mg/kg/day, dexamethasone forms 0.6 mg/kg/day; for Total Score: sum of each scoring category
[2] = tested on: acute self-limiting colitis in mice; assay: Gross visual observations of the murine abdomen (Example 3); type: in vivo; details: necropsy after 3 days of steroid gavage
Source text: Under isoflurane anesthesia, mice were terminally bled by cardiac puncture and then humanely euthanized by cervical dislocation. All collected blood was separated into serum that was dedicated for steroid detection and optimization of steroid detection procedures. Following euthanasia, a midline laparotomy was made and gross observations of the abdominal regions were photo-documented. Approximately 1 cm sections of the cecum, and the most proximal and distal portions of the colon were divided for histological examination. Cecal and colonic tissues were flash frozen in liquid nitrogen for future immunological protein quantification. Digesta extracted from the colon was stored at −80° C. for future steroid detection, and fresh feces from the cages were used to enumerate Bacteroides ovatus and Citrobacter rodentium by microbiological techniques on the same day as the necropsy.

[3] = Dissolution of steroid in sterile water for gavage; type: physicochemical; details: dose in 100 μL gavage volume
Description: The average weight of the mice (27.9 g) was calculated on the second day of the Citrobacter rodentium infection, and this average weight was used to calculate the steroid concentrations for all treatments. The steroids were dissolved as best as possible in sterile water, and stored at 4° C. until needed. Steroids were administered by gavage in […] for 3 consecutive days at the same time each morning (24 hrs between treatments) for the final 3 days of the C. rodentium infection. Mice in the control groups (without drug intervention) received water by gavage in 100 μL volumes. Gavage needles for drug administration were coated in sucrose solution (1 g/mL, syringe-filter sterilized) as a refinement procedure.

[4] = tested on: acute self-limiting colitis in mice; assay: Histological scoring of inflammation, C. rodentium colitis in mice with normal enteric microbiota (Example 7); type: in vivo; details: CR+/BO+ mice; prednisolone forms 1 mg/kg, dexamethasone forms 1.5 mg/kg (equivalent); one day following steroid treatment
Description: Approval to conduct this project was obtained from the AAFC LeRDC Animal Care Committee (Animal Use Protocol 1911). […] The methods employed were essentially the same as those described in Example 3, except that the Citrobacter rodentium (CR) was administered to incite acute self-limiting colitis in mice prior to colonization with Bacteroides ovatus (BO). […] FIG. 20 provides a schematic illustrating the study design and timelines.
As in the study described in Example 3, there were gross histopathological differences in the distal colon tissue obtained from mice in the different treatment groups. Histological scoring of inflammation was performed by a board-certified pathologist blinded to treatment. […] Following CR infection, with no treatment, neutrophil infiltration was evident and the histological score was 10. […] Evidence of enhanced amelioration of protein markers of inflammation were also observed. […] IL-12p70 is a pro-inflammatory cytokine involved in cell-mediated immunity. For example, it is known as a T cell-stimulating factor, which can stimulate the growth and function of T cells. Moreover, it stimulates the production of interferon-gamma (IFN-γ) and tumor necrosis factor-alpha (TNF-α) from T cells and natural killer (NK) cells, and reduces IL-4 mediated suppression of IFN-γ.

C[C@]12C=CC(=O)C=C1CC[C@@H]1[C@@H]2[C@@H](O)C[C@@]2(C)[C@H]1CC[C@]2(O)C(=O)CO [prednisolone, reference compound]
Crypt Height ([1]; cecal tissue): 1.5
Epithelia Hyperplasia ([1]; cecal tissue): 1.5
Epithelial Injury ([1]; cecal tissue): 1
Fibrosis ([1]; cecal tissue): 1
Globlet cell ([1]; cecal tissue): 0.5
Inflamm ([1]; cecal tissue): 1.5
Mitotic Act. ([1]; cecal tissue): 1
Total Score ([1]; cecal tissue): 8
Crypt Height ([1]; distal colon): 1.5
Epithelia Hyperplasia ([1]; distal colon): 1.5
Epithelial Injury ([1]; distal colon): 2
Fibrosis ([1]; distal colon): 1.5
Globlet cell ([1]; distal colon): 0.5
Inflamm ([1]; distal colon): 1.5
Mitotic Act. ([1]; distal colon): 1.5
Total Score ([1]; distal colon): 10
Crypt Height ([1]; proximal colon): 2
Epithelia Hyperplasia ([1]; proximal colon): 1.5
Epithelial Injury ([1]; proximal colon): 2
Fibrosis ([1]; proximal colon): 0
Globlet cell ([1]; proximal colon): 0.5
Inflamm ([1]; proximal colon): 1.5
Mitotic Act. ([1]; proximal colon): 1.5
Total Score ([1]; proximal colon): 9
blood present in ceca (gross observation) [2]: more blood present in ceca than dexamethasone treatment; also recorded: more blood in cecal area
dissolution in water [3]: did not fully dissolve in water
histological score, distal colon [4]: 18
